Data on one compound can be found in patent publication US11969433B2, “Compositions and methods for muscle regeneration using prostaglandin E2” (The Board of Trustees of the Leland Stanford Junior …, priority 2016, dated 2024).

One assay concerns aged MuSCs. The assay can be described thus: Clonal aged MuSC proliferation and death by time-lapse microscopy in hydrogel microwells. The class given is cell-based, mouse. The text has this:
We assayed clonal muscle stem cell proliferation by time-lapse microscopy as previously described^5,6. Briefly, we treated isolated aged MuSCs with PGE2 (Cayman Chemical) or vehicle (DMSO) for 24 hr. After five days of growth on hydrogels, cells were reseeded at a density of 500 cells per cm^2 surface area in hydrogel microwells with 600 μm diameter. For time-lapse microscopy we monitored cell proliferation for those wells with single cells beginning 12 hr (day 0) to two days after seeding and recorded images every 3 min at 10× magnification using a PALM/AxioObserver Z1 system (Carl Zeiss MicroImaging) with a custom environmental control chamber and motorized stage. We changed medium every other day in between the acquisition time intervals. We analyzed time-lapse image sequences using the Baxter Algorithms for Cell Tracking and Lineage Reconstruction to identify and track single cells and generate lineage trees^5,6,8-10.
Viable and dead cells were distinguished in time-lapse sequences based on phase-contrast boundary and motility maintenance or loss, respectively. […] The values were estimated using the equations described in^6, and found in Table 1. We denote the proliferation rates in the two intervals p24 and p48 and the corresponding death rates d24 and d48. […] The modeled cell counts in the two time intervals are given by […]

The test system of assay [1] is MuSCs. The assay can be described thus: cAMP activity assay (cAMP-Glo). To be noted: 1 hr PGE2 10 ng/ml. The class given is cell-based, mouse. The procedure: MuSCs were treated with DMSO (vehicle) or PGE2 (10 ng/ml) for 1 h and cyclic AMP levels measured according to the cAMP-Glo Assay protocol optimized by the manufacturer (Promega). Each sample was assayed in triplicate and in two independent experiments.

In assay [2] the test system is MuSCs. The assay can be described thus: Quantitative RT-PCR of MuSC transcripts. The class given is cell-based, mouse. The text has this:
We isolated RNA from MuSCs using the RNeasy Micro Kit (Qiagen). For muscle samples, we snap froze the tissue in liquid nitrogen, homogenized the tissues using a mortar and pestle, followed by syringe and needle trituration, and then isolated RNA using Trizol (Invitrogen). We reverse-transcribed cDNA from total mRNA from each sample using the SensiFAST™ cDNA Synthesis Kit (Bioline). We subjected cDNA to RT-PCR using SYBR Green PCR Master Mix (Applied Biosystems) or TaqMan Assays (Applied Biosystems) in an ABI 7900HT Real-Time PCR System (Applied Biosystems). We cycled samples at 95° C. for 10 min and then 40 cycles at 95° C. for 15 s and 60° C. for 1 min. To quantify relative transcript levels, we used 2-ΔΔCt to compare treated and untreated samples and expressed the results relative to Gapdh. For SYBR Green qRT-PCR, we used the following primer sequences: Gapdh. forward 5′-[…]-3′ (SEQ ID NO: 1), reverse 5′-CCCTTTTGGCTCCACCCT-3′ (SEQ ID NO: 2); Hpgd, forward 5′-[…]-3′ (SEQ ID NO: 3), reverse 5′-[…]-3′ (SEQ ID NO: 4); Ptges, forward 5′-GCTGTCATCACAGGCCAGA-3′ (SEQ ID NO: 5), reverse 5′-[…]-3′ (SEQ ID NO: 6); Ptges2, forward 5′-[…]-3′ (SEQ ID NO: 7), reverse 5′-[…]-3′ (SEQ ID NO: 8); Ptger1, forward 5′ GTGGTGTCGTGCATCTGCT-3′ (SEQ ID NO: 9), reverse, 5′ […]-3′ (SEQ ID NO: 10), and Ptger2, forward 5′-[…]-3′ (SEQ ID NO: 11), reverse 5′-[…]-3′ (SEQ ID NO: 12). TaqMan Assays (Applied Biosystems) were used to quantify Pax7. Myogenin. Slco2a1 (PGT), Ptger3 and Ptger4 in samples according to the manufacturer instructions with the TaqMan Universal PCR Master Mix reagent kit (Applied Biosystems). Transcript levels were expressed relative to Gapdh levels. For SYBR Green qPCR, Gapdh qPCR was used to normalize input cDNA samples. For Taqman qPCR, multiplex qPCR enabled target signals (FAM) to be normalized individually by their internal Gapdh signals (VIC).

For another assay, the system named is gastrocnemius muscles. The assay can be described thus: Specific twitch force after treadmill run to exhaustion, aged mice (Example 2). The class given is in vivo, mouse. To be noted: aged mice 18 months, 3 nM PGE2 after each of 10 daily runs, 4 weeks after last run. The procedure: The aged mice (18 months old) were subject to treadmill run to exhaustion daily for 10 days. The treadmill run was performed using the Exer3/6 (Columbus Instruments). Mice ran on the treadmill at 20 degrees downhill, starting at a speed of 10 meters/min. After 3 min, the speed was increased 1 meter/min to a final speed of 20 meters/min. Exhaustion was defined as the inability of the animal to remain on the treadmill despite electrical prodding. 2 h after each treadmill run, both gastrocnemius muscles of each mouse were injected with either PBS (control group) or 3 nM PGE2 (experimental group). The force measurement was performed 4 weeks after the last treadmill run using a […]-LR force transducer (Aurora Scientific) with a single 0.1 ms pulse at predetermined supramaximal stimulation intensity. The muscle force and synchronization pulses were recorded via a PCI-6251 acquisition card (National Instruments) and analyzed using Matlab. FIGS. 4O-4P show the specific muscle force values that were calculated by normalizing the force measurements with the muscle physiological cross-sectional area. […] Five repetitive measurements were made from each muscle. N=4 for the control group and n=5 for the PGE2 injected group. ** represents a statistical significant value of p<0.005 by 2-tailed Mann Whitney test.

The mark [3] stands for this setting: aged MuSCs, 1 day PGE2, 48 h tracking.
The mark [4] stands for this setting: first 24 hour interval, aged MuSC clones.
The mark [5] stands for this setting: second 24 hour interval, aged MuSC clones.

The structures appear in SMILES notation.

`CCCCC[C@H](O)/C=C/[C@H]1[C@H](O)CC(=O)[C@@H]1C/C=C\CCCC(=O)O` [PGE2, prostaglandin E2]: the “percent increase in dead cell count” value in the assay on aged MuSCs (aged MuSC clones, acute PGE2) is reported as 0.1%. The “percent increase in live cell count” value in the assay with aged MuSCs (aged MuSC clones, acute PGE2, n=45 clones) was 5.4%. Moreover, in the assay on aged MuSCs (setting [3]), the cell death entry was “profound reduction” and the “cumulative cell numbers per clone” value is on record as “remarkable increase”. In addition, in the assay on aged MuSCs (setting [4]), the “Estimated death rate d24” value was 0.0067 per hours and the “Estimated proliferation rate p24” value is recorded as 0.0475 per hours. In addition, in the assay on aged MuSCs (setting [5]), the “Estimated death rate d48” value is reported as 0.0012 per hours and the “Estimated proliferation rate p48” value is 0.0538 per hours. The “intracellular cAMP” value in the assay on MuSCs [1] was “elevated”. The “transcript levels of Ptger1 and Ptger4” value with MuSCs [2] (after 24 hr PGE2 treatment of MuSCs) is “upregulated”. In addition, the “Pax7 expression in aged MuSCs” value in the assay on MuSCs [2] (aged MuSCs, 1-day pulse) is on record as “maintenance”. Also, the “specific twitch force of gastrocnemius muscles” value in the assay on gastrocnemius muscles is given as “increase”.
